Measured values from ChEMBL document CHEMBL1201862, “PubChem BioAssay data set” (2004).
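96-well plates; 48 h exposure; 5 concentrations. Endpoints by linear interpolation between flanking doses. Not reached: highest tested concentration assigned. Here, GI50 denotes the concentration required for 50% inhibition of growth.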 Calls of active or inactive are those of the source. No stated cut-off is given here; in the data, active = GI50 up to about 1.1 µM and inactive = higher.

What was measured:
Experiment in all cases: DTP human tumour cell line panel, 48 h
A498 = tested on: A498
DLD-1 = tested on: DLD-1
DMS-114 = tested on: DMS-114
DMS-273 = tested on: DMS-273
HCC 2998 = tested on: HCC 2998
HCT-116 = tested on: HCT-116
LOX IMVI = tested on: LOX IMVI
M19-MEL = tested on: M19-MEL
OVCAR-4 = tested on: OVCAR-4
RXF 393 = tested on: RXF 393
SF-539 = tested on: SF-539
SK-MEL-28 = tested on: SK-MEL-28
SK-OV-3 = tested on: SK-OV-3
SNB-75 = tested on: SNB-75
UACC-257 = tested on: UACC-257
UO-31 = tested on: UO-31
DU-145 = tested on: DU-145
Hs-578T = tested on: Hs-578T
MDA-MB-231 = tested on: MDA-MB-231
MDA-N = tested on: MDA-N

Measured: GI50

CSc1nc(NC2OC(CO)C(O)C(O)C2O)c(N)c(=O)[nH]1 (stereo unspecified)
inactive: A498 > 100 µM | DLD-1 > 100 µM | DMS-114 > 100 µM | DMS-273 > 100 µM | HCC 2998 > 100 µM | HCT-116 > 100 µM | LOX IMVI > 100 µM | M19-MEL > 100 µM | OVCAR-4 > 100 µM | RXF 393 > 100 µM | SF-539 > 100 µM | SK-MEL-28 > 100 µM | SK-OV-3 > 100 µM | SNB-75 > 100 µM | UACC-257 > 100 µM | UO-31 > 100 µM

NC(CCP(=O)(O)CCC1C=CC=CC1)C(=O)O (stereo unspecified)
inactive: DU-145 > 100 µM | HCC 2998 > 100 µM | HCT-116 > 100 µM | Hs-578T > 100 µM | LOX IMVI > 100 µM | MDA-MB-231 > 100 µM | MDA-N > 100 µM | OVCAR-4 > 100 µM | RXF 393 > 100 µM | SF-539 56.8 µM | SK-MEL-28 > 100 µM | SK-OV-3 > 100 µM | SNB-75 > 100 µM | UACC-257 > 100 µM | UO-31 > 100 µM

COc1ccc(C2SCc3nc4ccccc4n32)cc1 (stereo unspecified)
inactive: A498 5.13 µM | DMS-114 2.26 µM | DMS-273 3.43 µM | LOX IMVI 5.78 µM | M19-MEL 3.95 µM | SF-539 5.66 µM | SK-MEL-28 4.32 µM | SK-OV-3 3.5 µM | SNB-75 1.82 µM | UO-31 10 µM

O=C(Nc1ccccc1F)c1c(O)nc2sccn2c1=O
inactive: A498 > 10 µM | DU-145 > 10 µM | HCC 2998 > 10 µM | HCT-116 > 10 µM | Hs-578T > 10 µM | LOX IMVI > 10 µM | MDA-MB-231 > 10 µM | MDA-N > 10 µM | OVCAR-4 > 10 µM | RXF 393 > 10 µM | SF-539 > 10 µM | SK-MEL-28 > 10 µM | SK-OV-3 > 10 µM | SNB-75 > 10 µM | UO-31 > 10 µM

CCOC(=O)CSc1nc(N)c2c(-c3ccc(OC)c(OC)c3)c3c(nc2n1)CCCC3
inactive: DU-145 > 100 µM | HCT-116 > 100 µM | Hs-578T 17.1 µM | LOX IMVI > 100 µM | MDA-MB-231 43 µM | MDA-N > 100 µM | OVCAR-4 34.4 µM | RXF 393 49.2 µM | SK-MEL-28 > 100 µM | SK-OV-3 26.9 µM | SNB-75 14.4 µM | UACC-257 > 100 µM | UO-31 > 100 µM

COc1ccc2c(c1O)-c1cc(O)cc3c1[C@@H](C2)N(C)CC3
inactive: A498 49.9 µM | DLD-1 43.2 µM | DMS-273 65.8 µM | HCC 2998 73.6 µM | HCT-116 27 µM | LOX IMVI 56.6 µM | M19-MEL 67.8 µM | OVCAR-4 60.5 µM | RXF 393 55.7 µM | SF-539 81.1 µM | SK-MEL-28 80 µM | SK-OV-3 203 µM | SNB-75 60.7 µM | UACC-257 71 µM | UO-31 44.2 µM

C[C@]12CC[C@@H]3c4ccc(OCCN5CCCC5)cc4CC[C@H]3[C@@H]1CCC2=O
inactive: A498 81.1 µM | DU-145 47.9 µM | HCC 2998 10.3 µM | LOX IMVI 7.38 µM | MDA-MB-231 24.5 µM | MDA-N 22 µM | OVCAR-4 21.5 µM | RXF 393 25.5 µM | SK-MEL-28 49.5 µM | SK-OV-3 48.6 µM | UACC-257 27 µM | UO-31 20.8 µM

CNC(=O)SCC(N)C(=O)O (stereo unspecified)
inactive: A498 > 100 µM | DLD-1 > 100 µM | DMS-114 35.3 µM | DMS-273 71.4 µM | HCC 2998 > 100 µM | HCT-116 > 79.4 µM | LOX IMVI 42.2 µM | OVCAR-4 > 100 µM | RXF 393 > 100 µM | SF-539 > 100 µM | SK-MEL-28 > 100 µM | SK-OV-3 > 100 µM | SNB-75 > 100 µM | UACC-257 > 100 µM | UO-31 > 100 µM

Cn1c(=O)[nH]c2nncnc2c1=O
inactive: A498 87.1 µM | DLD-1 384 µM | DMS-114 126 µM | DMS-273 21.6 µM | HCC 2998 54 µM | HCT-116 29.2 µM | LOX IMVI 361 µM | M19-MEL 43.7 µM | OVCAR-4 85.5 µM | RXF 393 19.3 µM | SF-539 64.9 µM | SK-MEL-28 474 µM | SK-OV-3 146 µM | SNB-75 21 µM | UACC-257 75.3 µM | UO-31 46 µM

CCOC(=O)CCC(NC(=O)OCc1ccccc1)C(=O)NC(CCC(=O)OCC)C(=O)NNC(=O)OC(C)(C)C (stereo unspecified)
inactive: DU-145 > 100 µM | HCC 2998 > 100 µM | HCT-116 > 100 µM | Hs-578T > 100 µM | MDA-N > 100 µM | RXF 393 18.7 µM | SK-MEL-28 > 100 µM | SK-OV-3 > 100 µM | SNB-75 > 100 µM | UO-31 > 100 µM

O=C(c1ccccc1)c1ccc2n[se]nc2c1
inactive: A498 31.8 µM | DLD-1 50 µM | DMS-114 12.4 µM | DMS-273 10.3 µM | HCC 2998 8.93 µM | LOX IMVI 29.4 µM | OVCAR-4 39.4 µM | RXF 393 40.9 µM | SF-539 17.9 µM | SK-MEL-28 > 100 µM | SK-OV-3 35.1 µM | SNB-75 18.4 µM | UACC-257 > 100 µM | UO-31 > 100 µM
